The source of these data is patent publication US20260207551A1, “PHOSPHOGLICERATE DEHYDROGENASE INHIBITORS FOR THE TREATMENT OF FIBROSIS” (CHIESI FARMACEUTICI S.P.A., priority 2022, published 2026).

One series has as its system αSMA. Briefly: Phenotypic assay: high content aSMA staining in NHLF cells. Type of series: cell-based, Human. Conditions: for IC50: Homo sapiens, SMA, 72 h, read-out: aSMA pIC50 (converted). As for the experimental part: NHLF cells (Lonza #CC2512) were seeded as 2000 cells/well in 384-well plates in MEM medium w/o serine and glycine (Sigma #M2279)+1% pen/strep+5 mM L-glutamine +10% FBS and incubated overnight at 37° C., 5% CO2.
The next day, cells were washed with PBS and starvation MEM medium w/o serine and glycine (0% FBS) was added and cells were incubated overnight at 37° C., 5% CO2. The day after, cells were pre-incubated with compounds or vehicle (0.3% DMSO) for 1 h. Compounds were tested at 9 consecutive 3-fold dilutions starting from 30 μM. Each compound was tested in duplicate. Cells were further incubated for 72 h at 37° C., 5% CO2, 95% humidity. After 72 h of incubation, αSMA expression was quantified using immunostaining: • Fixation in 4% paraformaldehyde, • Blocking with 3% BSA, 2% FBS, 0.2% Triton-X in PBS, • Primary ab. anti-αSMA (AbCam #ab7817) diluted 500× in blocking buffer • Anti-mouse secondary ab. AF488 (ThermoFisher #A11029) • % of αSMA positive cells was determined by High Content Imaging (Molecular Device), data analysis was performed using MetaXpress software (Molecular Devices) and % of αSMA positive was further used to calculate % of inhibition for tested compounds. Total cell number was determined by Hoechst staining and % of viability over TGFβ stimulated controls was calculated.

Series [1] is described as follows: Plasma and brain exposure after the last dose in bleomycin model (Comparative Example 7). The settings on record: after the last oral dose; 0.5 h, 2 h and 7 h. Type of series: in vivo, mice. The method, then:
Plasma and tissue exposures of NCT-503 were determined as described in Example 2. The plasma and brain concentrations of NCT-503 were determined by a liquid chromatography-tandem mass spectrometry (LC/MS/MS) assay. Plasma or tissue homogenate samples (tissues were homogenized with a water/acetonitrile 50/50 mixture) were extracted with 3 volumes of acetonitrile. Supernanatant was injected into HPLC system (Agilent 1260 Quaternary Pump equipped with an Agilent 1200 High Performance Autosampler SL; Agilent), using a Kinetex EVO C18 analytical column (100 A, 50×2.1 mm, 2.6 μm; Phenomenex). The mobile phases consisted of 0.1% formic acid in water (solvent A) and 0.1% formic acid in acetonitrile (solvent B); chromatographic separation was performed with gradient elution method (0.0-0.5 min, 5% B; 0.5-4.0 min, gradient to 90% B; 4.0-5.5 min, 90% B; 5.5-7.0 min, gradient to 5% B; 7.0-11.0 min, 5% B—flow rate: 0.3 mL/min).
Mass spectrometric analysis was performed on a linear ion trap triple quadrupole mass spectrometer (4000 Q TRAP; AB SCIEX) equipped with a turbo spray ion source; mass spectrometer was operated in positive ion mode and quantification was achieved by multiple reaction monitoring (MRM) mode. Peak integration was performed using Analyst (version 1.6.2.). […]
Plasma and brain exposure of NCT-503 was determined following the last oral dose at three timepoints (0.5 h, 2 h and 7 h).

Series [2] deals with alpha smooth muscle actin (α-SMA). Briefly: TGF-b induced α-SMA expression in NHLFs (Western blot). The settings on record: 50 uM; NHLF, TGF-β (10 ng/ml) 48 h. The class given is cell-based, Human. From the text: The antifibrotic activity of compounds of the present invention has been monitored measuring the expression of fibrotic mediators, collagen I (Col-I) and alpha smooth muscle actin (α-SMA) after treatment in lung cells with TGF-β in comparison with Nintedanib (see Frank Hilberg et al, Cancer Res 2008 Jun. 15; 68(12):4774-82), and allosteric inhibitor NCT-503 (see Hamanaka et al., Am J Respir Cell Mol Biol. 2018 May; 58(5):585-593).
Human normal lung fibroblasts (NHLFs) were purchased from Lonza (Basel, Switzerland). NHFLs were cultured in Eagle's Minimum Essential medium (EMEM) w/o serine and glycine, supplemented with 10% Fetal Bovine Serum (FBS), antibiotics (50 U/ml penicillin and 0.05 mg/ml streptomycin) and 2 mM L-glutamine, in an atmosphere of 95% air and 5% CO2 at 37° C. NHLFs cultures were used between passage 1 and 9. Before all the experiments, cells were incubated overnight in serum-free medium.
NHLFs were seeded in 12-well plates at cultured until 70% of confluency. To examine the expression of fibrotic markers, cells were treated with different concentrations of Compounds and NCT-503 in EMEM medium for 1 h followed by stimulation with TGF-β for 48 h at 37° C., 5% CO2. Following cell treatments, medium was removed and whole cell extracts were prepared by directly adding to the well the 1× loading buffer (125 mM Tris-HCl pH 6.8, 4% SDS, 0.2% Orange G, 50% glycerol, 2.5% β-mercaptoethanol, Li-cor Biosciences), boiled for 5 min and then electrophoresed on Mini protean TGX gel 4-12% (Biorad). After electrophoresis, proteins were transferred to a nitrocellulose membrane. Immunodetection of Col-I, α-SMA and glyceraldeide 3-phosphate dehydrogenase (GAPDH) were obtained by using mouse anti-CollA1 (Santacruz), mouse anti-α-SMA (sigma) and rabbit anti-GAPDH (Cell Signaling Technology) all diluted at 1:1000 in TBS-tween 0.1%. […] Detection and quantification were performed with Odyssey imaging system (Li-cor) using GAPDH as loading control.
(In general: Immunoblotting shows a protein as a band on a membrane.)

Series [3] has as its system bleomycin-induced pulmonary fibrosis. Conditions: treated mice 7 days after intratracheal instillation of bleomycin; cited from earlier work.
Series [4] has the same test system. Briefly: Bleomycin-induced pulmonary fibrosis in male mice (Comparative Example 7). The class given is in vivo. Conditions: for lung/body weight: NCT-503 100 mg/kg/day, Nintedanib esylate 60 mg/Kg/day. As for the experimental part: The allosteric inhibitor NCT-503 has accordingly been assessed in the same murine model of Compound 19. Comparative Example 7 was carried out under the same experimental conditions of Example 5.
The treatment was stopped at day 10, after 4 days of treatment with NCT-503 600 mg/kg/day. After two days wash-out, the treatment re-started with a once daily regimen at the final dose of […].
The final dose was of 100 mg/kg/day.

For series [5] the test system is unchanged. Briefly: Bleomycin-induced pulmonary fibrosis in male mice (Example 5).
Method: Male C57BL6/J mice (7-8 weeks old) were purchased from the Envigo RMS (San Pietro al Natisone (UD), Italy). All mice were maintained under pathogen-free conditions and were provided food and water ad libitum.
Lung injury was induced by double oropharyngeal instillation of Bleomycin hydrochloride (BLM, BAXTER) at day 0 and day 4 at the doses of 0.02 U/mouse in 50 μl of saline solution (0.9%). Control animals received double oropharyngeal instillation of 50 μl of saline solution.
Compound 19 was orally administered twice daily, starting on day 7 after the first oropharyngeal administration of bleomycin at the two doses of 400 and 600 mg/kg/day, 10 ml/kg, dissolved in 0.5% Tween 80, 0.5% Methylcellulose in H2O and treatment lasted for two weeks.
A group of animals was treated with Nintedanib esylate salt, at the dose of 60 mg/kg/day, 10 ml/kg, once daily, to compare the efficacy of the test compounds with an FDA approved drug for the treatment of IPF patients. Control mice were given vehicle-only over the same time intervals. Weight of all animals has been assessed twice a week starting from day 0 until day 21.
On days 21, mice were anesthetized by intraperitoneal injection of thiopental (200 mg/kg/10 ml; pentothal sodium, MSD Animal Health Srl). Blood was withdrawn by cardiac puncture and collected in heparine tubes. Plasma was obtained after centrifugation of blood at 10,000 g for 10 min. Lungs were lavage with saline solution through the heart, formalin fixed and paraffin embedded, and sections were stained with Masson's Trichrome to evaluate the grade and severity of fibrosis and collagen deposition.
Masson's Trichrome stained slides were also scanned with NanoZoomer S60 (Hamamatsu Photonics K.K., Shizuoka, Japan) and acquired into the Visiopharm Integrator System (VIS; version 2017.2.4.3387) for a quantification of pulmonary fibrosis by automated analysis with the support of a VIS Analysis Protocol Package (APP). The present APP has been designed to identify and then quantify the fibrotic tissue, detecting accumulation of altered connective tissue, excess of collagen deposition and cellular density.
To quantify lung protein content and the levels of specific proteins as markers of fibrosis and collagen deposition, lungs from subgroups of animals were weighted, homogenized in Phosphate buffer solution (PBS) and proteins of interest were quantified by immunometric or colorimetric assays. Hydroxyproline content was determined using the Hydroxyproline Colorimetric Assay Kit (Sigma MAK008, USA) according to the manufacturer's protocol. WISP-1, CollagenI, pro-CollagenI and Elastin were determined by Elisa kits. Protein quantification was performed using DC Protein Assay (Bio-Rad Laboratories, Italy). Plasma serine levels were measured using the DL-Serine Assay Kit (Abcam, Cambridge, MA).
Series [6] shares this test system. Briefly: Bleomycin-induced pulmonary fibrosis in male mice (Example 6). The settings on record: Nintedanib esylate 50 mg/Kg bid. Type of series: in vivo, Male C57BL6/J mice. As for the experimental part: The effect of Compound 19a was evaluated in a murine model (C57BL/6J mouse strain) in which fibrosis was induced by a double oropharyngeal (OA) instillation of bleomycin. The Compound 19a was administered under therapeutic regimen for 14 days, starting the treatments at day 7 from the first instillation of Bleomycin OA up to the day 21, considered the endpoint for this model.
All mice were maintained under pathogen-free conditions and had free access to food and water.
Lung injury was induced by double OA instillation of bleomycin hydrochloride (BLM, BAXTER, Deerfield, IL, USA) at day 0 and day 4 at the dose of 0.03 U/mouse in […] of saline solution (NaCl 0.9%). Control animals received double OA instillation of […] of saline solution.
The Compound 19a was orally administered twice daily at the three doses of 3, 30 and 100 mg/Kg 10 mL/Kg, using as vehicle for dissolution the 0.5% Tween 80, 0.5% Methylcellulose in H2O.
On day 21, the respiratory system mechanics were measured using the FlexiVent System (SCIREQ Inc., Montreal Qc, Canada) (Vanoirbeek et al., 2010).
Briefly, mice were anesthetized by intraperitoneal injection of ketamine (Anesketin®, Dechra Inc., Handelsweg, NL) and xylazine (Xilagesic®, Calier Inc., Barcelona, ES) solution (100 mg/Kg and 10 mg/Kg, respectively). Once anesthesia was achieved, to analyze forced vital capacity (FVC), anesthetized mice were tracheotomized using an 18-gauge metal cannula, connected via an endotracheal cannula to the FlexiVent and ventilated at a respiratory rate of 150 breaths/min and tidal volume of 10 mL/Kg against a positive end-expiratory pressure of 3 cm H2O to achieve a mean lung volume close to that during spontaneous breathing. To prevent spontaneous breathing mice also received pancuronium bromide at 1 mg/Kg intraperitoneally. FlexiVent software version 8.1 was used to perform the perturbations.
Immediately after the in-life evaluation, plasma and bronchoalveolar lavage fluid (BALF) samples were collected.
First, blood was collected by cardiac puncture, and plasma was obtained after centrifugation of blood at 2000×g and 4° C. for 10 minutes.
Subsequently, the lungs were gently rinsed three times using a tracheal cannula with 0.6 mL of clear BAL solution. The obtained BALF was centrifuged at 1000×g and 4° C. for 10 minutes. The cell-free supernatant was used for biomarkers quantitative determination.
The following biomarkers were determined in BALF and plasma samples by commercially available ELISA kits: Collagen I (evaluated in BALF), an index of collagen accumulation; matrix metallopeptidase 7 (MMP-7, evaluated in BALF), indicator of aberrant fibrogenesis and ECM remodeling and surfactant protein D (SP-D, evaluated in PLASMA), marker of alveolar epithelial cell damage and dysfunction.
Lastly, the entire lungs were resected, fixed with formalin and embedded in paraffin. Sections were stained with Masson's trichrome to assess the grade and severity of fibrosis and collagen deposition.

Where only a bound is given, the exact number is not on record here.

For the molecule `Cn1c(C(=O)NC2(c3ccc(C(C(=O)O)C4CC4)cc3)CCOC2)cc2c(Cl)c(Cl)ccc21` (racemic) [Compound 15, (±)-2-Cyclopropyl-2-(4-(3-(4,5-dichloro-1-methyl-1H-indole-2-carbox-amido)tetrahydrofuran-3-yl)phenyl)acetic acid], the IC50 in the series on αSMA (NHLF, 72 h incubation) is 2 µM.
For `Cn1c(C(=O)NC2(c3ccc(C(C(=O)O)C4CCCC4)cc3)CCOC2)cc2c(Cl)c(Cl)ccc21` (racemic) [Compound 16, (±)-2-cyclopentyl-2-{4-[3-(4,5-dichloro-1-methyl-1H-indole-2-amido)oxolan-3-yl]phenyl}acetic acid], the IC50 in the series with αSMA (NHLF, 72 h incubation) is 0.501 µM.
On the same count and under the same terms, the value for `COc1cc2c(cc(C(=O)NC3(c4ccc(C(C(=O)O)C(C)C)cc4)CCOC3)n2C)c(Cl)c1Cl` (racemic) [Compound 20, (±)-2-{4-[3-(4,5-dichloro-6-methoxy-1-methyl-1H-indole-2-amido)oxolan-3-yl]phenyl}-3-methylbutanoic acid] was 1.26 µM; that for `CCC(C(=O)O)c1ccc(C2(NC(=O)c3cc4c(Cl)c(Cl)ccc4n3C)CCOC2)cc1` (racemic) [Compound 72, (±)-2-{4-[3-(4,5-dichloro-1-methyl-1H-indole-2-amido)oxolan-3-yl]phenyl}butanoic acid] was 1.26 µM.
Take `Cc1cc(C)nc(NC(=S)N2CCN(Cc3ccc(C(F)(F)F)cc3)CC2)c1` [NCT-503]: in series [1], the main brain/plasma ratio came to 2.4. Besides, the “TGF-b induced a-sma (% inh. 50 uM)” value in series [2] was 93%. Also, the “attenuation of lung fibrosis” value in series [3] is “preliminary efficacy in attenuation of lung fibrosis”. Moreover, the “fibrosis severity (FIG. 20B)” value in series [4] (100 mg/kg/day) is recorded as “not significant trend in reducing fibrosis severity”. In addition, the “Ashcroft score analysis (FIG. 20A)” value in series [4] (100 mg/kg/day, compared to vehicle-treated mice) is “did not result in diminished Bleomycin-induced lung fibrosis”. For the same molecule, the body weight result in series [4] (200 mg/kg/day) is “did not show a significant worsening of the body weight”. Besides, the tolerability result in series [4] (600 mg/kg/day (bid)) is reported as “did not tolerate”. For the same molecule, the survival in series [4] (600 mg/kg/day then 300 mg/kg/day once daily) was found to be 40%. In series [4] (600 mg/kg/day, 4 days of treatment), the “weight loss compared to Day 0” value was ~ 20%. The lung/body weight result in series [4] is “do not induce reduction of lung/body weight”. Besides, the “levels of pro-CollagenI and WISP-1” value in series [4] (lung homogenates) is “not affected”. In series [4] (plasma), the “circulating serine levels (de novo serine synthesis)” value is given as “did not induce inhibition of de novo serine synthesis”. The “aSMA pIC50” value in the series on αSMA (NHLF, 72 h incubation) was >5.0. The “expression of aSMA (in words)” value in the series on αSMA (after 72 hours of incubation) is “partially reduces the expression of aSMA”.
In the case of `COC(=O)c1ccc2c(c1)NC(=O)/C2=C(\Nc1ccc(N(C)C(=O)CN2CCN(C)CC2)cc1)c1ccccc1` [Nintedanib, reference compound], in series [5] (Compound 19 highest dose (600 mg/kg/day), Nintedanib esylate 60 mg/kg/day, not significant), the “reduction of lung/body weight” value is given as −21%. In addition, the “body weight during 2-weeks of treatment” value in series [5] (compared to BLM/Vehicle treated group) was “did not lose additional weight”. In series [5] (day 21), the “Ashcroft score (FIG. 11A)” value is on record as “reduced”. Further, in series [6] (Compound 19a 100 mg/Kg bid), the “reduction of Collagen I in BALF” value worked out at 56%, the “reduction of MMP-7 in BALF” value was determined as 86% and the “reduction of SP-D levels in plasma” value is recorded as 87%. Besides, in series [6] (Compound 19a 100 mg/kg bid, vs BLM/vehicle), the “improvement of FVC decline” value was “similarly to Nintedanib”. In addition, the lung/body weight entry in series [4] is given as “do not induce reduction of lung/body weight”.
